Results as given in US6737439B2, “Aromatase inhibitors from Broussonetia papyrifera” (The Board of Trustees of the University of Illinois, priority 2001, dated 2004).
Values joined by “and” are separate entries in the source; they are usually repeats but may differ in a detail not shown here. Equal values may be shown once. “Also recorded” adds a separate entry of the source. Read-outs that look alike come from different tables or passages of the source.

Key:
aromatase = biological target: T1, aromatase (Homo sapiens, UniProt P11511); test: Assay for inhibition of aromatase activity (human placental microsomes, [1,2-3H]androstenedione); assay type: biochemical; details: for aromatase inhibition, result in words: in vitro aromatase assay; for fold greater aromatase inhibition potency than aminoglutethimide: versus positive control aminoglutethimide
T1 construct: Reaction mixtures were prepared in glass tubes containing 4 μL of placental microsomes (5 mg/mL); from tissue; host or cells: human term placenta (microsomal fraction)
T1 sequence (P11511 1-503): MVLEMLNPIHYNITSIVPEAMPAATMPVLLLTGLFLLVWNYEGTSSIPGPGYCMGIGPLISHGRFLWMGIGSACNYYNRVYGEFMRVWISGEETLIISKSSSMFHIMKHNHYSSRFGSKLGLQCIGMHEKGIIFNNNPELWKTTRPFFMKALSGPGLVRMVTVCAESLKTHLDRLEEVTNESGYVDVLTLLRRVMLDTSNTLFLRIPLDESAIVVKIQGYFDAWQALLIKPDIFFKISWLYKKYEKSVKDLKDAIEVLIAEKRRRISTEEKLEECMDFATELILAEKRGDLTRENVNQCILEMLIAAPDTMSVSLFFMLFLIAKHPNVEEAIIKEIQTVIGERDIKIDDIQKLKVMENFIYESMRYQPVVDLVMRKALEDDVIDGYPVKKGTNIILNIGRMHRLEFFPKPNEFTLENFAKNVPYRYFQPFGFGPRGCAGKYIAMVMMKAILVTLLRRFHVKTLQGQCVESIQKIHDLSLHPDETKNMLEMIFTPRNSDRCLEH
Procedure: Assay for Inhibition of Aromatase Activity. Microsomes were prepared from freshly delivered human term placentas using 0.05 M potassium phosphate buffer, pH 7.4, and stored frozen in plastic tubes at −70° C. […] After a 4 min incubation at 37° C., the reaction was terminated by adding 3 mL of chloroform. The tubes were centrifuged at 2,000×g for 10 min and then 300 μL of the aqueous phases were transferred to tubes containing 300 μL of charcoal/dextrin solution (5%). Following another 10 min centrifugation at 2,000×g, supernatant fractions (500 μL) were used for the determination of radioactivity. Inhibition of aromatase activity was calculated using the following equation: [formula]
Samples were tested in duplicate and the mean values were used to prepare dose-response curves. Results were typically expressed as IC50 values.

[1] = tested on: alveolar lesions in a mouse mammary organ culture model; test: Mouse mammary organ culture model, formation of alveolar lesions; assay type: cell-based; details: tested at 100 ng/ml
[2] = tested on: tumors in Sprague-Dawley rats; details: 400 mg/kg diet; cited from earlier work
[3] = read-out: IC50, inactive in the aromatase inhibition assay at the dose levels used
[4] = human placental microsomes, read-out: IC50 (μM), aromatase inhibitory activity

Row | Compound | aromatase inhibition, result in words (aromatase) | IC50 (aromatase; [4]) | other results
1 | O=c1ccc2c(O)cc(O)cc2o1 [5,7-dihydrocoumarin, 5,7-Dihydroxycoumarin] | – | – | IC50 (aromatase; [3]): > 225 µM
2 | O=C1c2c(O)cc(O)cc2O[C@H](c2ccc(O)cc2O)[C@H]1O [(2R,3R)-5,7,2′,4′-tetrahydroxyflavanonol, (2R,3R)-5,7,2′,4′-Tetrahydroxyflavanonol] | did not show potent aromatase inhibition | – | –
3 | O=C1c2c(O)cc(O)cc2O[C@H](c2ccc(O)cc2)[C@H]1O [(2R,3R)-katuranin, (2R,3R)-Katuranin] | did not show potent aromatase inhibition | – | –
4 | CC(C)=CCc1cc([C@H]2Oc3c(CC=C(C)C)c(O)cc(O)c3C(=O)[C@@H]2O)ccc1O [(2R,3R)-lespedezaflavanone C, (2R,3R)-Lespedezaflavanone C] | did not show potent aromatase inhibition | – | –
5 | Oc1ccc([C@@H]2CCc3ccc(O)cc3O2)cc1 [(2S)-7,4′-dihydroxyflavan, (2S)-7,4′-Dihydroxyflavan] | did not show potent aromatase inhibition | – | –
6 | CC(C)=CCC/C(C)=C/Cc1c(-c2ccc(O)cc2O)oc2cc(O)cc(O)c2c1=O [Compound 1, 5,7,2′,4′-Tetrahydroxy-3-geranylflavone] | active | 24 µM | melting point: 94 to 95 °C
7 | CC(C)=CCC/C(C)=C/Cc1c(O)cc2oc(-c3ccc(O)c(O)c3)c(O)c(=O)c2c1O [Compound 2, 5,7,3′,4′-Tetrahydroxy-6-geranylflavonol] | not active; also recorded: inactive | – | –
8 | COc1c(-c2ccc(O)c(O)c2)oc2cc(O)c(C/C=C(\C)CCC=C(C)C)c(O)c2c1=O [Compound 3, 5,7,3′,4′-Tetrahydroxy-3-methoxy-6-geranylflavone] | not active; also recorded: inactive | – | melting point: 98 to 99 °C
9 | CC(C)=CCc1cc([C@@H]2CCc3ccc(O)cc3O2)ccc1O [Compound 4, (2S)-7,4′-Dihydroxy-3′-prenylflavan] | did not show potent aromatase inhibition; also recorded: inactive | – | –
10 | Oc1ccc(CCCc2ccc(O)cc2O)cc1 [Compound 5, 1-(2,4-Dihydroxyphenyl)-3-(4-hydroxyphenyl)propane] | inactive | – | melting point: 92 to 93 °C
11 | CC(C)=CCc1c(O)ccc(CCCc2ccc(O)cc2)c1O [Compound 6, 1-(2,4-Dihydroxy-3-prenylphenyl)-3-(4-hydroxyphenyl)propane] | inactive | – | melting point: 115 to 116 °C
12 | COc1cc(O)ccc1CCCc1ccc(O)c(CC=C(C)C)c1 [Compound 7, 1-(4-Hydroxy-2-methoxyphenyl)-3-(4-hydroxy-3-prenylphenyl)propane] | inactive | – | melting point: 85 to 86 °C
13 | COc1cc(/C=C/C(=O)OC/C(C)=C/Cc2c(O)ccc(C(=O)/C=C/c3ccc(O)cc3O)c2O)ccc1O [Compound 8, 3′-(γ-hydroxymethyl-(E)-γ-methylallyl)-2,4,2′,4′-tetrahydroxychalcone 11′-O-ferulate] | active | 7.1 µM | –
14 | C/C(=C\Cc1c(O)ccc(C(=O)/C=C/c2ccc(O)cc2O)c1O)COC(=O)/C=C/c1ccc(O)cc1 [Compound 9, 3′-[γ-Hydroxymethyl-(E)-γ-methylallyl]-2,4,2′,4′-tetrahydroxychalcone 11′-O-coumarate] | active | 0.5 µM and 0.52 µM | fold greater aromatase inhibition potency than aminoglutethimide (aromatase): approximately ten
15 | CC(C)=CCc1c(O)cc(O)cc1-c1cc2ccc(O)cc2o1 [Compound 10, Demethylmoracin I] | did not show potent aromatase inhibition; also recorded: active | 31.1 µM | –
16 | CC(C)(O)C1Cc2c(ccc3c2O[C@H](c2ccc(O)cc2O)CC3=O)O1 (stereo partly drawn) [Compound 11, 2S-2′,4′-Dihydroxy-2″-(1-hydroxy-1-methylethyl)-dihydrofuro[2,3-h]flavanone] | active | ~0.1 µM and 0.11 µM | inhibition at 0.1 µg/mL [1]: 50%; fold greater aromatase inhibition potency than aminoglutethimide (aromatase): approximately 60 fold
17 | O=C1C[C@@H](c2ccc(O)cc2O)Oc2cc(O)cc(O)c21 [Compound 14, (2S)-5,7,2′,4′-Tetrahydroxyflavanone] | – | 2.2 µM | –

Row | Compound | aromatase inhibition, result in words (aromatase) | IC50 (aromatase; [4]) | other results
18 | CC(C)=CCc1cc(-c2oc3c(CC=C(C)C)c(O)cc(O)c3c(=O)c2O)ccc1O [Compound 16, Broussoflavonol F] | – | 9.7 µM | –
19 | COc1ccc(CCCc2ccc(O)cc2)c(O)c1 [Compound 18, Broussonin A] | did not show potent aromatase inhibition | 30 µM | –
20 | CC(C)=CCc1c(O)ccc(C(=O)/C=C/c2ccc(O)cc2O)c1O [Compound 19, 2,4,2′,4′-Tetrahydroxy-3′-prenylchalcone] | – | 4.6 µM | –
21 | CC(C)=CCc1cc2cc(-c3cc(O)cc(O)c3)oc2cc1O [Compound 20, Moracin N] | did not show potent aromatase inhibition | 31.1 µM | –
22 | CC1=C[C@@H]2c3c(O)cc(-c4cc5ccc(O)cc5o4)cc3O[C@]3(c4ccc(O)cc4O)Oc4cc(O)ccc4[C@@H](C1)[C@H]23 [Compound 21, Albanol A] | – | 7.5 µM | –
23 | COc1ccc2c(c1CC=C(C)C)O[C@H](c1ccc(O)cc1O)CC2 [Compound 22, (2S)-2′,4′-Dihydroxy-7-methoxy-8-prenylflavan] | did not show potent aromatase inhibition | – | melting point: 95 to 96 °C; IC50 (aromatase; [3]): > 118 µM
24 | CC(C)=CCc1cc2c(cc1O)O[C@H](c1ccc(O)cc1)CC2=O [bavachin, Bavachin] | not active | – | –
25 | COc1cc(O)ccc1CCCc1ccc(O)cc1 [broussonin B, Broussonin B] | did not show potent aromatase inhibition | – | –
26 | COc1ccc(CCCc2ccc(OC)c(O)c2)c(O)c1 [broussonin E, Broussonin E] | did not show potent aromatase inhibition | – | –
27 | CC(C)=CCc1c(O)cc2oc(-c3ccc(O)c(O)c3)c(O)c(=O)c2c1O [gancaonin P, Gancaonin P] | not active | – | –
28 | CC1(C)C=Cc2c(O)cc(-c3cc4ccc(O)cc4o3)cc2O1 [moracin D, Moracin D] | did not show potent aromatase inhibition | – | –
29 | COc1cc(O)cc(-c2cc3ccc(O)cc3o2)c1CC=C(C)C [moracin I, Moracin I] | did not show potent aromatase inhibition | – | –
30 | Oc1cc(O)cc(-c2cc3ccc(O)cc3o2)c1 [moracin M, Moracin M] | did not show potent aromatase inhibition | – | –
31 | (2S)-Euchrenone a7 [Compound 15] | – | 3.4 µM | –
32 | Aminoglutethimide | – | – | MNU-induced tumor incidence [2]: effectively reduces
33 | Broussonin F | did not show potent aromatase inhibition | – | –
